Data: patent US20090325986A1, “Deazapurine Analogs of 1'-Aza-L-Nucleosides” (priority 2005, published 2009)

Legend:
Assay in all cases: biochemical
[1] = molecular target: bovine PNPase (Bos taurus, UniProt P55859); conditions: for Ki: B. taurus PNPase
Text: (§1) The inhibition constants KI are the dissociation constants for the enzyme-inhibitor complex measured from initial reaction rates. For many, but not all, immucillin inhibitors, a slow-onset of inhibition then occurs consequent upon a time dependent conformational change in the enzyme that leads to tighter binding characterised by the constant KI* (J. F. Morrison and C. T. Walsh, Adv, Enzymol. Relat. Areas Mol. Biol., 1988, 61, 201-310).

[2] = molecular target: plasmodial PNPase (Plasmodium falciparum, UniProt Q8I3X4)
Chain of plasmodial PNPase (Q8I3X4 whole entry): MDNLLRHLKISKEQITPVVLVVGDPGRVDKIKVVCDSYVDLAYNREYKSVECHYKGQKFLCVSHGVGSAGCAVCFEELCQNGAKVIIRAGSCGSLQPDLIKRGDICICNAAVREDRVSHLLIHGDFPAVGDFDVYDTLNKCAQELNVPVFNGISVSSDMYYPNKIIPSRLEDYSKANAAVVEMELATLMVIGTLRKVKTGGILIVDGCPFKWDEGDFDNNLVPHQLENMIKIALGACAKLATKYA
Text: as §1

[3] = molecular target: human PNPase (Homo sapiens, UniProt P00491); conditions: for Ki: H. sapiens PNPase
Chain of human PNPase (P00491 whole entry): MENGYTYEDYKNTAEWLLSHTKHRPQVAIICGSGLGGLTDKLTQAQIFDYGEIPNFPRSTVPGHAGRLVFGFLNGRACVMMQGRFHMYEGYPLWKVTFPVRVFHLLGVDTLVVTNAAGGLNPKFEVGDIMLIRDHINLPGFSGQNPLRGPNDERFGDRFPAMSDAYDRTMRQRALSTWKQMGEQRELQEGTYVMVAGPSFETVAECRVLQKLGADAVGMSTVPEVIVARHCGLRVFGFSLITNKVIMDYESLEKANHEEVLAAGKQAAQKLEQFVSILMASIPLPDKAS
Text: as §1

[4] = Ki*, tighter binding after slow-onset inhibition
[5] = Ki, dissociation constant of enzyme-inhibitor complex from initial reaction rates
[6] = Ki, Plasmodium falciparum PNPase, dissociation constant of enzyme-inhibitor complex from initial reaction rates

Chain of bovine PNPase (P55859 whole entry): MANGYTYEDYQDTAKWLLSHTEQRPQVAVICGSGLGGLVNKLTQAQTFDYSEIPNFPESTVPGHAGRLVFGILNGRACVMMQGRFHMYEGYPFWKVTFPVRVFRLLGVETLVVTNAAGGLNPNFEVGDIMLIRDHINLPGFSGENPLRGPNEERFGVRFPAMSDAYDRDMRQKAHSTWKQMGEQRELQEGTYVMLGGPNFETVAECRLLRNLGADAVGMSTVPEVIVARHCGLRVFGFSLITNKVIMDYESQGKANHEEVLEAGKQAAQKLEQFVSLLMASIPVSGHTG

type of inhibition ([1]; bovine PNP)	Ki [3, 4]	Ki [3, 5]	type of inhibition ([3]; human PNP)	Ki ([2]; Ki*, Plasmodium falciparum PNPase, tighter binding after slow-onset inhibition)	type of inhibition ([2]; Plasmodium falciparum PNP)	Structure (SMILES)	Ki [1, 4]	Ki [1, 5]	Ki [2, 6]	Ki* ([2]; Plasmodium falciparum PNPase, tighter binding after slow-onset inhibition)
–	–	–	–	–	–	O=c1[nH]cnc2c(CN3C[C@H](CO)[C@@H](O)C3)c[nH]c12 [[(+)-10], reference compound]	0.11 ± 0.014 nM	2.1 ± 0.3 nM	0.5 ± 0.04 nM	Not observed
slow onset tight binding inhibitor	0.68 ± 0.26 nM	1.5 ± 0.1 nM	slow onset tight binding inhibitor	80 ± 7 nM	slow onset tight binding inhibitor	O=c1[nH]cnc2c(CN3C[C@@H](CO)[C@H](O)C3)c[nH]c12 [[(−)-10], (3S,4S)-1-[(9-Deazahypoxanthin-9-yl)methyl]-4-(hydroxymethyl)pyrrolidin-3-ol]	0.5 ± 0.1 nM	19 ± 5 nM	1700 ± 300 nM	–
